# Assay results as given in patent US8911953B2, “TDF-related compounds and analogs thereof, analogs and bioactive fragments” (Thrasos Innovation, Inc., priority 2005, dated 2014).
# “Also recorded” adds a separate entry of the source. Like-named read-outs stand apart in the source and are kept apart here. Positions of bridges follow the written chain, without caps; N, C: chain ends. No end group written: not given here.
# How the values were obtained:
# ALK-3 = ALK-3 (Homo sapiens, UniProt P36894); test: Radioligand receptor binding assay (competition with 125I-labeled TDF-1)
# Description: Radioligand Receptor Binding Assays for ALK-3, ALK-6 and BMPR-2:
# The assays are based on competition between ^125I-labeled TDF-1 (BMP-7 or OP-1 or other BMPs) and candidate TDFRP compounds or unlabeled TDF-1 for binding to respective receptors (ALK-3, ALK-6 or BMPR-2 or other BMP receptors or co-receptors). In brief, the procedure involves immobilization of receptor on 96 well Removawell plates, blocking the wells with 3% BSA in PBS and subsequently washing the wells. Increasing concentrations of unlabeled TDF-1 or TDFRP compounds or control (unlabeled TDF-1) prepared in binding buffer are then added. Incubate plate for 1 hour at room temperature, and then add a fixed amount of ^125I-labeled TDF-1 (250,000 to 350,000 cpm) to the wells and further incubate in cold (4° C.) for 20 hours. Aspirate the contents of the wells and wash the wells four times with a wash buffer, and count the receptor bound ^125I-labeled TDF-1 in an auto gamma counter.
# Using this procedure, TDFRP compound binding to select ALK receptors are assessed. Accordingly, TDFRP compounds that preferentially bind select ALK receptors can be identified. For example, TDFRP compounds that preferentially bind to ALK-3 receptor compared with binding to other ALK receptors, e.g., ALK-6 (FIGS. 1, 15).
# A. Radioligand Receptor Binding Assays For ALK-3, ALK-6 and BMPR-2: […]
# [1] = system: LNCaP human prostate cancer cells; test: Smad phosphorylation in LNCaP prostate cancer cells (Western blot); type: cell-based; conditions: for Smad 1, 5, 8 phosphorylation on co-administration: TDFRP compound co-administered with BMP-6, LNCaP cells; for Smad phosphorylation and activation: single agent, cultured LNCaP cells
# Description: The detection of Smad phosphorylation by Western analysis, for example in LNCaP (prostate cancer cells) or EC (vascular endothelial cells) in culture medium can be examined after exposure to varying concentrations of TDFRP or control compounds. BMP-7 serves as a positive control. Cells are lysed in RIPA lysis buffer (50 mM Tris-HCl at pH 8.0, 150 mM NaCl, 1% NP-40, 0.5% sodium deoxycholate, 0.1% SDS) containing 1 mM PMSF, 1 mM sodium orthovanadate, and 10 ug/mL proteinase inhibitor cocktail. Lysates are incubated on ice for 15 minutes, centrifuged, and transferred supernatant to a clean tube. 50 to 100 ug is used for analysis by SDS-PAGE. Resolved proteins are electro transferred onto PVDF membrane. The blot is blocked by incubating in 3% non-fat dry milk prepared in PBS at room temperature for 1 hour with constant slow agitation. The blot is incubated with 1-2 ug/mL of primary antibody (rabbit anti-phospho-Smad 1) prepared in PBS-milk, overnight with agitation at 4 degree C., washed twice with PBS, and incubated with secondary antibody (anti rabbit HRP conjugated IgG, 1:3000 dilution) at room temperature for 2 hours with agitation. After washing in PBS-0.05% Tween 20 for 5 minutes and rinsing, Smad phosphorylation is detected via an HRP reaction according to manufacturer's instructions (FIGS. 2, 3, 18, 2X).
# For detection of Smad phosphorylation by Western analysis, LNCaP (prostate cancer cells) or EC (vascular endothelial cells) in culture medium are exposed to varying concentrations of TDFRP or control compounds. BMP-7 served as a positive control. Cells are lysed in RIPA lysis buffer (50 mM Tris-HCl at pH 8.0, 150 mM NaCl, 1% NP-40, 0.5% sodium deoxycholate, 0.1% SDS) containing 1 mM PMSF, 1 mM sodium orthovanadate, and 10 ug/mL proteinase inhibitor cocktail. Lysates are incubated on ice for 15 minutes, centrifuged, and transferred supernatant to a clean tube. 50 to 100 ug is used for analysis by
# SDS-PAGE. Resolved proteins are electro transferred onto PVDF membrane. The blot is blocked by incubating in 3% non-fat dry milk prepared in PBS at room temperature for 1 hour with constant slow agitation. The blot is incubated with 1-2 ug/mL of primary antibody (rabbit anti-phospho-Smad 1) prepared in PBS-milk, overnight with agitation at 4 degree C., washed twice with PBS, and incubated with secondary antibody (anti rabbit HRP conjugated IgG, 1:3000 dilution) at room temperature for 2 hours with agitation. After washing in PBS-0.05% Tween 20 for 5 minutes and rinsing, Smad phosphorylation is detected via an HRP reaction according to manufacturer's instructions (FIGS. 3, 27).
# BMP signaling molecules co-administered with TDFRP compounds show synergistic or enhanced downstream signaling as detected by Smad phosphorylation. Smad phosphorylation was assessed by Western analysis in LNCaP (prostate cancer cells) or EC (vascular endothelial cells) cells in culture medium exposed to varying concentrations of TDFRP or control compounds. BMP-7 served as a positive control. Cells are lysed in RIPA lysis buffer (50 mM Tris-HCl at pH 8.0, 150 mM NaCl, 1% NP-40, 0.5% sodium deoxycholate, 0.1% SDS) containing 1 mM PMSF, 1 mM sodium orthovanadate, and 10 ug/mL proteinase inhibitor cocktail. Lysates are incubated on ice for 15 minutes, centrifuged, and transferred supernatant to a clean tube. 50 to 100 ug is used for analysis by SDS-PAGE. Resolved proteins are electro transferred onto PVDF membrane. […]
# Chain of ALK-3 (P36894 24-532, species assumed): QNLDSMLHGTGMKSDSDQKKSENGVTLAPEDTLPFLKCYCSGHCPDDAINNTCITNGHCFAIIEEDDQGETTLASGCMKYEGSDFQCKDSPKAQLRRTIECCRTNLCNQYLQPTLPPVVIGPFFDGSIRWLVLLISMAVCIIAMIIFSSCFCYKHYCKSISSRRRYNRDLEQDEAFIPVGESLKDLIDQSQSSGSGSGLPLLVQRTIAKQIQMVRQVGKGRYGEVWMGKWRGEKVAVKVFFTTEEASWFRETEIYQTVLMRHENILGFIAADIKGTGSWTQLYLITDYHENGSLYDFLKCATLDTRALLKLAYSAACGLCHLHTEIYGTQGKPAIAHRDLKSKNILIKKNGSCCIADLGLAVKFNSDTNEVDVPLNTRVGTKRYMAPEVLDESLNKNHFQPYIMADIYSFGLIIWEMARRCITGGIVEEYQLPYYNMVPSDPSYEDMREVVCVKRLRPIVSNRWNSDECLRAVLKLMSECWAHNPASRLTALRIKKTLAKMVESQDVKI
sequence,measurement,setting,value
CYFDDSSNVLCKKYRS (disulfide 1-11 (inferred); not fully specified) [SEQ ID NO:45],binding to BMP Type I ALK-3 receptor compared to ALK-6 receptor,ALK-3,binds preferentially
same,binding to BMP Type I ALK-3 receptor compared to ALK-6 receptor,ALK-3; listed as SEQ ID NO 45,selectively binds
same,"Smad 1, 5, 8 phosphorylation on co-administration",[1],enhanced
same,"Smad 1, 5, 8 phosphorylation on co-administration",[1]; listed as SEQ ID NO: 45,enhanced or synergistic activity
same,Smad phosphorylation and activation,[1],induced
same,Smad phosphorylation and activation,[1]; listed as SEQ ID NO: 45,"phosphorylation and activation of Smad1 and Smad5; also recorded: Smad 1, 5, 8 phosphorylation and activation"
